From US11382889B2, “NRF2 activators for the prevention and/or treatment of axonal degeneration” (priority 2018, dated 2022)
Structures can show the parent of a compound that is named as a salt.

Tested on: NRF2
Assay: NRF2 protein levels and NRF2-target gene expression in Abcd1− mice spinal cord after dietary DMF
Type: in vivo
Settings: 12 months of age, DMF 100 mg/kg/day in chow for 4 months
From the text: a) NRF2 protein levels in WT (n=6), Abcd1^− (n=6) and DMF-treated Abcd1^− mice (Abcd1^−+DMF, n=6) mice spinal cord at 12 months of age. Protein levels were normalized relative to γ-TUB and quantification is depicted as fold change to WT (Wild type) mice. b) NRF2-dependent antioxidative genes (Hmox1, Nqo1 and Gst α 3) expression in WT (n=8), Abcd1^− (n=8) and Abcd1^−+DMF (n=8) mice spinal cord at 12 months of age. Gene expression levels were normalized relative to Rplp0. Quantification is represented as fold change to WT mice. c) Mitochondrial DNA (mtDNA) levels in WT (n=8), Abcd1^− (n=8) and Abcd1^−+DMF (n=8) mice spinal cord at 12 months of age. mtDNA content was measured by quantitative RT-PCR and expressed as the ratio of mtDNA (CytB levels) to nuclear DNA (nDNA, Cebpa levels). Quantification is depicted as fold change to WT mice. d) Sirt1, Pgc-1α, Nrf1 and Tfam expression was measured by quantitative RT-PCR in WT (n=8), Abcd1^− (n=8) and Abcd1^−+DMF (n=8) mice spinal cord at 12 months of age. Gene expression levels were normalized relative to Rplp0. Quantification is depicted as fold change to WT mice. e) ATP levels in WT (n=8), Abcd1^− (n=8) and Abcd1^−+DMF (n=8) mice spinal cord at 12 months of age. Quantification is represented as fold change to WT mice. […]

In the case of `COC(=O)/C=C/C(=O)OC` [DMF, dimethyl fumarate], the NRF2 protein levels is reported as “induced” and the “NRF2 target genes expression (Hmox1, Nqo1, Gstα3)” value is reported as “induced”.
